“And” between values parts separate entries of the source, which are not always exact repeats. Identical values can stand only once.
Test system: BDF1 mice, Adenocarcinoma 755 s.c., tumor weight T/C
Assay: NCI In Vivo Anticancer Drug Screen. Data for tumor model Adenocarcinoma 755 (subcutaneous) in B6D2F1 (BDF1) mice
Conditions: endpoint: mean tumor weight, higher = larger tumour
Method: The antitumor activity of compounds was measured in mice bearing transplantable tumors. Survival or tumor size were measured and the results are expressed as the measurement made in the treated group (T) divided by the measurement made in the vehicle treated control group (C). The tumor model used in this assay is Adenocarcinoma 755 (subcutaneous) in B6D2F1 (BDF1) mice

O=c1[nH]cnc2c1ncn2C1CCCCC1
T/C (dose: 23.0 mg/kg/injection, schedule: Q01DX011 (ip), vehicle: carboxymethylcellulose (CMC)): 93 % of control and 111 % of control
T/C (dose: 23.1 mg/kg/injection, schedule: Q01DX011 (ip), vehicle: carboxymethylcellulose (CMC)): 86 % of control
T/C (dose: 23.12 mg/kg/injection, schedule: Q01DX011 (ip), vehicle: carboxymethylcellulose (CMC)): 74 % of control
T/C (dose: 46.0 mg/kg/injection, schedule: Q01DX011 (ip), vehicle: carboxymethylcellulose (CMC)): 74 % of control and 85 % of control
T/C (dose: 46.2 mg/kg/injection, schedule: Q01DX011 (ip), vehicle: carboxymethylcellulose (CMC)): 118 % of control
T/C (dose: 46.25 mg/kg/injection, schedule: Q01DX011 (ip), vehicle: carboxymethylcellulose (CMC)): 117 % of control
T/C (dose: 46.25 mg/kg/injection, schedule: Q01DX011 (oral), vehicle: carboxymethylcellulose (CMC)): 104 % of control
T/C (dose: 92.5 mg/kg/injection, schedule: Q01DX011 (ip), vehicle: carboxymethylcellulose (CMC)): 90 % of control and 99 % of control and 108 % of control
T/C (dose: 92.5 mg/kg/injection, schedule: Q01DX011 (oral), vehicle: carboxymethylcellulose (CMC)): 118 % of control
T/C (dose: 185.0 mg/kg/injection, schedule: Q01DX011 (oral), vehicle: carboxymethylcellulose (CMC)): 114 % of control
T/C (dose: 370.0 mg/kg/injection, schedule: Q01DX011 (oral), vehicle: carboxymethylcellulose (CMC)): 79 % of control

CCN(CC)CCNc1ccc(C)c2sc3ccccc3c(=O)c12
T/C (dose: 12.5 mg/kg/injection, schedule: Q01DX011 (ip), vehicle: methylcellulose (MC)): 73 % of control
T/C (dose: 12.93 mg/kg/injection, schedule: Q01DX011 (ip), vehicle: carboxymethylcellulose (CMC)): 98 % of control
T/C (dose: 25.0 mg/kg/injection, schedule: Q01DX011 (ip), vehicle: methylcellulose (MC)): 51 % of control
T/C (dose: 25.87 mg/kg/injection, schedule: Q01DX011 (ip), vehicle: carboxymethylcellulose (CMC)): 117 % of control
T/C (dose: 25.88 mg/kg/injection, schedule: Q01DX011 (ip), vehicle: carboxymethylcellulose (CMC)): 73 % of control
T/C (dose: 32.35 mg/kg/injection, schedule: Q01DX011 (ip), vehicle: carboxymethylcellulose (CMC)): 75 % of control
T/C (dose: 43.13 mg/kg/injection, schedule: Q01DX011 (ip), vehicle: carboxymethylcellulose (CMC)): 49 % of control
T/C (dose: 50.0 mg/kg/injection, schedule: Q01DX011 (ip), vehicle: methylcellulose (MC)): 35 % of control
T/C (dose: 51.75 mg/kg/injection, schedule: Q01DX011 (ip), vehicle: carboxymethylcellulose (CMC)): 44 % of control and 46 % of control and 59 % of control
T/C (dose: 59.1 mg/kg/injection, schedule: Q01DX011 (ip), vehicle: carboxymethylcellulose (CMC)): 15 % of control
T/C (dose: 64.7 mg/kg/injection, schedule: Q01DX011 (ip), vehicle: carboxymethylcellulose (CMC)): 23 % of control
T/C (dose: 82.8 mg/kg/injection, schedule: Q01DX011 (ip), vehicle: carboxymethylcellulose (CMC)): 7 % of control
T/C (dose: 100.0 mg/kg/injection, schedule: Q01DX011 (ip), vehicle: methylcellulose (MC)): 1 % of control
T/C (dose: 103.5 mg/kg/injection, schedule: Q01DX011 (ip), vehicle: carboxymethylcellulose (CMC)): 5 % of control
T/C (dose: 1617.5 micrograms/kg/injection, schedule: Q01DX011 (ip), vehicle: carboxymethylcellulose (CMC)): 70 % of control
T/C (dose: 3235.0 micrograms/kg/injection, schedule: Q01DX011 (ip), vehicle: carboxymethylcellulose (CMC)): 38 % of control
T/C (dose: 6470.0 micrograms/kg/injection, schedule: Q01DX011 (ip), vehicle: carboxymethylcellulose (CMC)): 15 % of control
T/C (dose: 8087.0 micrograms/kg/injection, schedule: Q01DX011 (ip), vehicle: carboxymethylcellulose (CMC)): 72 % of control

CCOP(=O)(OCC)OCC1OC(n2cnc3c(=S)nc[nH]c32)C(O)C1O (stereo unspecified)
T/C (dose: 4.0 mg/kg/injection, schedule: Q01DX011 (ip), vehicle: methylcellulose (MC)): 50 % of control
T/C (dose: 8.0 mg/kg/injection, schedule: Q01DX011 (ip), vehicle: methylcellulose (MC)): 49 % of control
T/C (dose: 16.0 mg/kg/injection, schedule: Q01DX011 (ip), vehicle: methylcellulose (MC)): 56 % of control
T/C (dose: 31.0 mg/kg/injection, schedule: Q01DX011 (ip), vehicle: methylcellulose (MC)): 33 % of control
T/C (dose: 62.0 mg/kg/injection, schedule: Q01DX011 (ip), vehicle: methylcellulose (MC)): 46 % of control
T/C (dose: 125.0 mg/kg/injection, schedule: Q01DX011 (ip), vehicle: methylcellulose (MC)): 7 % of control

Cc1ccc(N2CCN(CCCN3CCN(c4ccccc4Cl)CC3)CC2)cc1
T/C (dose: 6.0 mg/kg/injection, schedule: Q01DX011 (ip), vehicle: carboxymethylcellulose (CMC)): 84 % of control
T/C (dose: 11.0 mg/kg/injection, schedule: Q01DX011 (ip), vehicle: methylcellulose (MC)): 29 % of control
T/C (dose: 12.0 mg/kg/injection, schedule: Q01DX011 (ip), vehicle: carboxymethylcellulose (CMC)): 64 % of control
T/C (dose: 22.0 mg/kg/injection, schedule: Q01DX011 (ip), vehicle: methylcellulose (MC)): 34 % of control
T/C (dose: 22.5 mg/kg/injection, schedule: Q01DX011 (ip), vehicle: carboxymethylcellulose (CMC)): 50 % of control and 55 % of control
T/C (dose: 22.5 mg/kg/injection, schedule: Q01DX011 (ip), vehicle: other): 93 % of control
T/C (dose: 24.0 mg/kg/injection, schedule: Q01DX011 (ip), vehicle: carboxymethylcellulose (CMC)): 65 % of control
T/C (dose: 45.0 mg/kg/injection, schedule: Q01DX011 (ip), vehicle: carboxymethylcellulose (CMC)): 50 % of control and 59 % of control
T/C (dose: 45.0 mg/kg/injection, schedule: Q01DX011 (ip), vehicle: methylcellulose (MC)): 12 % of control
T/C (dose: 45.0 mg/kg/injection, schedule: Q01DX011 (ip), vehicle: other): 69 % of control
T/C (dose: 48.0 mg/kg/injection, schedule: Q01DX011 (ip), vehicle: carboxymethylcellulose (CMC)): 63 % of control
T/C (dose: 90.0 mg/kg/injection, schedule: Q01DX011 (ip), vehicle: carboxymethylcellulose (CMC)): 43 % of control and 62 % of control
T/C (dose: 96.0 mg/kg/injection, schedule: Q01DX011 (ip), vehicle: carboxymethylcellulose (CMC)): 43 % of control

S=c1nc[nH]c2c1ncn2C1CC1
T/C (dose: 31.0 mg/kg/injection, schedule: Q01DX011 (ip), vehicle: carboxymethylcellulose (CMC)): 86 % of control
T/C (dose: 62.0 mg/kg/injection, schedule: Q01DX011 (ip), vehicle: carboxymethylcellulose (CMC)): 89 % of control
T/C (dose: 125.0 mg/kg/injection, schedule: Q01DX011 (ip), vehicle: carboxymethylcellulose (CMC)): 86 % of control
T/C (dose: 250.0 mg/kg/injection, schedule: Q01DX011 (ip), vehicle: carboxymethylcellulose (CMC)): 33 % of control
T/C (dose: 500.0 mg/kg/injection, schedule: Q01DX011 (ip), vehicle: carboxymethylcellulose (CMC)): 59 % of control

CS(=O)(=O)OCCC(=O)NCCCCCNC(=O)CCOS(C)(=O)=O
T/C (dose: 57.0 mg/kg/injection, schedule: Q01DX011 (ip), vehicle: methylcellulose (MC)): 64 % of control
T/C (dose: 113.0 mg/kg/injection, schedule: Q01DX011 (ip), vehicle: methylcellulose (MC)): 53 % of control
T/C (dose: 225.0 mg/kg/injection, schedule: Q01DX011 (ip), vehicle: methylcellulose (MC)): 30 % of control

C[C@]12CCC(=O)C=C1CC[C@@H]1[C@@H]2[C@@H](O)C[C@@]2(C)[C@H]1CC[C@]2(O)C(=O)COC(=O)c1ccc([N+](=O)[O-])cc1Cl
T/C (dose: 25.0 mg/kg/injection, schedule: Q01DX011 (sc), vehicle: water): 43 % of control
T/C (dose: 50.0 mg/kg/injection, schedule: Q01DX011 (sc), vehicle: water): 17 % of control
T/C (dose: 100.0 mg/kg/injection, schedule: Q01DX011 (sc), vehicle: water): 23 % of control
T/C (dose: 200.0 mg/kg/injection, schedule: Q01DX011 (sc), vehicle: water): 4 % of control

Nc1nc2nc(/N=N/SCCC(=O)O)[nH]c2c(=O)[nH]1
T/C (dose: 37.5 mg/kg/injection, schedule: Q01DX011 (ip), vehicle: methylcellulose (MC)): 54 % of control
T/C (dose: 75.0 mg/kg/injection, schedule: Q01DX011 (ip), vehicle: methylcellulose (MC)): 45 % of control

O=c1[nH]cnc2n[nH]nc12
T/C (dose: 125.0 mg/kg/injection, schedule: Q01DX011 (oral), vehicle: methylcellulose (MC)): 55 % of control
T/C (dose: 250.0 mg/kg/injection, schedule: Q02DX006 (ip), vehicle: methylcellulose (MC)): 5 % of control
T/C (dose: 250.0 mg/kg/injection, schedule: Q03DX004 (ip), vehicle: methylcellulose (MC)): 21 % of control

[O-][N+](CCO)(CCO)c1ncnc2nc[nH]c12
T/C (dose: 25.0 mg/kg/injection, schedule: Q01DX011 (ip), vehicle: saline): 121 % of control
T/C (dose: 75.0 mg/kg/injection, schedule: Q01DX011 (ip), vehicle: saline): 72 % of control
T/C (dose: 225.0 mg/kg/injection, schedule: Q01DX011 (ip), vehicle: saline): 82 % of control

O=C(/C=C/C(=O)c1ccccc1)c1ccccc1
T/C (dose: 65.0 mg/kg/injection, schedule: Q01DX011 (ip), vehicle: other): 76 % of control
T/C (dose: 90.0 mg/kg/injection, schedule: Q01DX011 (ip), vehicle: other): 59 % of control
T/C (dose: 125.0 mg/kg/injection, schedule: Q01DX011 (ip), vehicle: other): 51 % of control

Source: PubChem BioAssay AID180 (DTP/NCI, 2004)
